Measured values reported in PMC12475274, “Harnessing indole scaffolds to identify small-molecule IRE1α inhibitors modulating XBP1 mRNA splicing” (Nature Communications, 2025).
pIC50: −log10 of the molar value. “And” between values parts separate entries of the source, which are not always exact repeats. Equal entries are not always repeated. Where two headings read alike, the source gives them in different places.

Key:
[1] = molecular target: T1, dephosphorylated IRE1α (547–977) (Homo sapiens, UniProt O75460); test: FRET-based IRE1α RNase activity assay, dephosphorylated IRE1α; type: biochemical
T1 construct: Human IRE1α kinase and RNase domain (residues 547–977) was subcloned into pLIB plasmid; His tag (with TEV cleavage site) (N, cleaved yes); made in house; host or cells: Sf9 insect cells, baculovirus (Bac-to-Bac)
T1 sequence (O75460 547-977): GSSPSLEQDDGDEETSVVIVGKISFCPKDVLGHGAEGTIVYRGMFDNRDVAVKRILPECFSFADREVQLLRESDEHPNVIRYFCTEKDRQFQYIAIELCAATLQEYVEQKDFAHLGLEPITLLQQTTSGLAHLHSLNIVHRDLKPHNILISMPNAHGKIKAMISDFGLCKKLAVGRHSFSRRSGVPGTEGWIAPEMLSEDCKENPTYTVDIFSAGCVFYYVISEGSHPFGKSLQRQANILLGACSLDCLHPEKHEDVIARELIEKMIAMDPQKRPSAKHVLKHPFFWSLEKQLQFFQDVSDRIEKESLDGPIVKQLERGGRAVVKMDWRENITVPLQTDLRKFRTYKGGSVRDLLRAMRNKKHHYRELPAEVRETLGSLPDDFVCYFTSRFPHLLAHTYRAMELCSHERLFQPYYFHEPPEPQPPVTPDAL
Protocol: (§1) Human IRE1α kinase and RNase domain (residues 547–977) was subcloned into pLIB plasmid with a His tag and TEV cleavage site, and expressed using Bac-to-Bac expression system. The primers used are listed in Supplementary Table S3. The protein purification was performed following established procedures. Briefly, Sf9 cells were infected with baculovirus and incubated at 27 °C 110 rpm for 72 h. The cells were collected by centrifugation at 4000 × g for 15 min and the cell pellet was resuspended in lysis buffer (50 mM HEPES pH 7.5, 300 mM NaCl, 10% glycerol, 1 mM MgCl2, 1 mM TCEP, 5 mM imidazole), then supplemented with 1:10,000 benzonase (Sigma, E1014), 1 tablet/25 mL […]™ Protease Inhibitor Cocktail tablets (Sigma, S8830) and 1 mM PMSF before lysed by sonication at 4 °C. […] The protein elution was incubated with TEV protease to remove His tag at 4 °C overnight. Then the sample was diluted 1:6 in buffer (50 mM HEPES pH 7.5, 1 mM TCEP, 5% glycerol) and loaded onto a 5 mL pre-packaged Q HP anion exchange column (Cytiva, HiTrap Q HP) pre-equilibrated with QA buffer (50 mM HEPES pH 7.5, 50 mM NaCl, 1 mM TCEP, 5% glycerol). The unphosphorylated and phosphorylated protein was separated by eluting the protein with a very shallow gradient with 0-30% buffer QB (50 mM HEPES pH 7.5, 1 M NaCl, 1 mM TCEP, 5% glycerol) over 80 CV. Different peaks were collected separately and verified by LC-MS. The fully phosphorylated fraction was collected and further purified by size exclusion chromatography (Cytiva, HiLoad 16/600 Superdex 200 pg,) with SEC buffer (25 mM HEPES pH 7.5, 250 mM NaCl, 1 mM TCEP, 10% glycerol) and fractioned as monomeric peak. The rest protein fraction from the Q HP anion exchange column was incubated with Lambda protein phosphatase (New England BioLabs, P0753S) overnight at 4 °C, the dephosphorylation was confirmed by LC-MS. The unphosphorylated protein was further purified by size exclusion chromatography with the SEC buffer described above. The purified phosphorylated (p-IRE1α) and dephosphorylated (IRE1α) protein aliquots were stored at −80 °C for future usage.
The dual-labeled RNA substrate with a FAM at 5’ and the BHQ-1 at 3’ containing the XBP1 sequence (5′FAM-[…]-3′BHQ1) was purchased from Integrated DNA Technologies (IDT). The FRET-based IRE1α RNase activity assay was carried out in reaction buffer containing 20 mM HEPES pH 7.5, 50 mM KOAc, 1 mM MgOAc2, 1 mM DTT, 0.05% v/v TritonX-100, at a total reaction volume of 20 μL in a 384-well black plate (4514, Corning). For unphosphorylated IRE1α (IRE1α), a final concentration of 40 nM IRE1α protein and 100 nM RNA substrate was used. For phosphorylated IRE1 (p-IRE1α), a final concentration of 4 nM p-IRE1α protein and 200 nM RNA substrate was used. The indicated compound and IRE1α protein were incubated for 30 min at room temperature before the substrate was added to the reaction. The plate was then kinetically read over one hour at room temperature using a TECAN Spark plate reader. The measurement was carried out using the fluorescence top reading mode at the excitation wavelength of 485 nm and the emission wavelength of 535 nm with a 10 nm excitation and emission bandwidth. The linear part of the reaction curve was adopted and fitted with sample linear regression to obtain the slope, and the slope was adopted to reflect the reaction rate. The inhibition % was calculated by using the equation: inhibition% = 100 × (slope of DMSO control – slope of the sample)/(slope of DMSO control – slope of blank control), DMSO control: DMSO with protein and RNA substrate; Blank control: DMSO with RNA substrate. The IC50 values were calculated using the concentration-response model in GraphPad Prism 9. […]

[2] = molecular target: T2, phosphorylated IRE1α (p-IRE1α) (Homo sapiens, UniProt O75460); test: FRET-based IRE1α RNase activity assay, phosphorylated IRE1α; type: biochemical
T2 construct: Human IRE1α kinase and RNase domain (residues 547–977) was subcloned into pLIB plasmid; His tag (with TEV cleavage site) (N, cleaved yes); made in house; host or cells: Sf9 insect cells, baculovirus (Bac-to-Bac)
T2 sequence (O75460 547-977): as above
Protocol: as §1
The dual-labeled RNA substrate with a FAM at 5’ and the BHQ-1 at 3’ containing the XBP1 sequence (5′FAM-[…]-3′BHQ1) was purchased from Integrated DNA Technologies (IDT). The FRET-based IRE1α RNase activity assay was carried out in reaction buffer containing 20 mM HEPES pH 7.5, 50 mM KOAc, 1 mM MgOAc2, 1 mM DTT, 0.05% v/v TritonX-100, at a total reaction volume of 20 μL in a 384-well black plate (4514, Corning). For unphosphorylated IRE1α (IRE1α), a final concentration of 40 nM IRE1α protein and 100 nM RNA substrate was used. For phosphorylated IRE1 (p-IRE1α), a final concentration of 4 nM p-IRE1α protein and 200 nM RNA substrate was used. The indicated compound and IRE1α protein were incubated for 30 min at room temperature before the substrate was added to the reaction. The plate was then kinetically read over one hour at room temperature using a TECAN Spark plate reader. The measurement was carried out using the fluorescence top reading mode at the excitation wavelength of 485 nm and the emission wavelength of 535 nm with a 10 nm excitation and emission bandwidth. The linear part of the reaction curve was adopted and fitted with sample linear regression to obtain the slope, and the slope was adopted to reflect the reaction rate. The inhibition % was calculated by using the equation: inhibition% = 100 × (slope of DMSO control – slope of the sample)/(slope of DMSO control – slope of blank control), DMSO control: DMSO with protein and RNA substrate; Blank control: DMSO with RNA substrate. The IC50 values were calculated using the concentration-response model in GraphPad Prism 9.

[3] = FRET assay, RNase activity, mean (± SEM), read-out: IRE1α IC50
[4] = FRET assay, source data, unit from Fig. 3 / sheet Fig. 2b, read-out: IRE1a IC50, individual replicates (n1-n4)
[5] = FRET assay, RNase activity, mean (± SEM), read-out: p-IRE1α IC50
[6] = FRET assay, source data, unit from Fig. 3, read-out: p-IRE1a IC50, individual replicates (n1-n4)
[7] = IRE1a, individual replicates (n1-n4), Supplementary Fig. 2b, 2c, read-out: IC50
[8] = IRE1a, mean, Supplementary Fig. 2b, 2c, read-out: IC50, mean
[9] = p-IRE1a, individual replicates (n1-n3), Supplementary Fig. 2b, 2c, read-out: IC50
[10] = p-IRE1a, mean, Supplementary Fig. 2b, 2c, read-out: IC50, mean

SMILES | pIC50 [1, 3] | pIC50 [1, 4] | pIC50 [2, 5] | pIC50 [2, 6] | pIC50 [1, 7] | pIC50 [1, 8] | pIC50 [2, 9] | pIC50 [2, 10] | other results
Cc1ccc2c(NS(=O)(=O)c3ccccc3Cl)cccc2c1Oc1ncccc1-c1ccnc(N[C@H]2CCCNC2)n1 [AMG18] | – | – | – | – | – | – | – | – | inhibition(%) ([1]; IRE1a, 5.55556 μM): 93.95% and 92.37% and 91.58% and 94.22%; inhibition(%) ([1]; IRE1a, 16.6667 μM): 92.87% and 92.05% and 91.66% and 92.11%; inhibition(%) ([1]; IRE1a, 50 μM): 89.29% and 89.80% and 92.49% and 93.01%; inhibition(%) ([2]; p-IRE1a, 5.55556 μM): 100.91% and 100.40% and 100.53% and 99.85%; inhibition(%) ([2]; p-IRE1a, 16.6667 μM): 99.21% and 99.54% and 99.79% and 99.45%; inhibition(%) ([2]; p-IRE1a, 50 μM): 99.53% and 98.55% and 99.75% and 99.47%
COc1ccc2c(c1)c(CCC(=O)O)c(C)n2C(=O)c1ccc(Br)cc1 [IA02] | 5.84 | 6.06 and 5.88 and 5.66 | 5.71 | 5.68 and 5.78 | – | – | – | – | –
COc1ccc2c(c1)c(CCC(=O)O)c(C)n2C(=O)c1ccccn1 [IA04] | 6.28 | 6.47 and 5.98 and 6.69 | 6.09 | 5.80 and 6.34 and 6.40 | – | – | – | – | –
COc1ccc2c(c1)c(CCC(=O)O)c(C)n2C(=O)c1ccc2c(c1)C(=O)c1ccccc1C2=O [IA32] | 6.12 | 6.23 and 6.01 and 5.96 and 6.42 | 6.21 | 5.97 and 6.23 and 6.80 | – | – | – | – | –
COc1ccc2c(c1)c(CCC(=O)O)c(C)n2C(=O)c1cccc(C(F)(F)F)c1 [IA36] | 7.00 | 7.40 and 6.87 and 6.86 | 7.22 and 7.25 | 6.98 and 7.35 and 7.74 | – | – | – | – | –
Cc1c(CCC(=O)O)c2ccccc2n1C(=O)c1cccc(C#N)c1 [IA41] | – | – | – | – | 5.64 and 5.36 and 5.67 | 5.53 | 5.31 and 6.11 | 5.55 | –
Cc1c(CCC(=O)O)c2ccccc2n1C(=O)c1cccs1 [IA42] | – | – | – | – | 5.71 and 5.48 and 5.98 | 5.68 | 5.35 and 5.96 | 5.56 | –
Cc1c(CCC(=O)O)c2cc(Br)ccc2n1C(=O)c1cccs1 [IA44] | – | – | – | – | 7.05 and 7.04 and 7.23 | 7.10 | 6.77 and 7.46 | 7.00 | –
Cc1c(CCC(=O)O)c2cc(F)ccc2n1C(=O)c1cccc(C#N)c1 [IA47] | – | – | – | – | 5.33 and 6.01 and 5.44 and 5.70 | 5.55 | 5.28 and 5.11 and 5.44 | 5.25 | –
Cc1c(CCC(=O)O)c2cc(F)ccc2n1C(=O)c1cccs1 [IA48] | – | – | – | – | 6.27 and 6.42 and 6.92 | 6.46 | 5.97 and 6.38 and 6.13 | 6.13 | –
Cc1c(CCC(=O)O)c2cc(Cl)ccc2n1C(=O)c1cccs1 [IA60] | – | – | – | – | 6.93 and 7.04 and 6.98 | 7.00 | 6.61 and 6.34 and 7.04 | 6.57 | –
Cc1c(CCC(=O)O)c2cc(Cl)ccc2n1C(=O)c1cccc(C#N)c1 [IA63] | – | – | – | – | 7.00 and 7.08 and 7.01 | 7.05 | 6.69 and 6.39 and 7.10 | 6.64 | –
COc1ccc2c(c1)c(CCC(=O)O)c(C)n2C(=O)c1ccc(F)cc1 [IA66] | 6.85 | 6.67 and 6.90 and 7.08 | 6.70 | 6.91 and 6.94 and 6.45 | – | – | – | – | –
COc1ccc2c(c1)c(CCC(=O)O)c(C)n2C(=O)c1ccc(N(C)C)cc1 [IA70] | 6.49 | 6.32 and 6.63 and 6.61 | 6.14 | 6.30 and 5.86 and 6.54 | – | – | – | – | –
